What was measured:
Molt-4 cells = test: Detection of E3 enzyme-dependence: Molt-4 cell killing with or without pomalidomide (CCK-8); type: cell-based; conditions: 10 µM pomalidomide, Figure 2
[1] = Metabolic stability assay in liver microsomes (human); type: in vitro ADME
How it was run: (§1)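 Human or mouse liver microsomes at 0.5 mg/mL with 1 µM compound at 37 °C, plus or minus NADPH; samples at 0–60 min quenched in cold acetonitrile with internal standards, analysed by LC-MS/MS. Half-life and intrinsic clearance from linear fit of ln % remaining versus time.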

[2] = Metabolic stability assay in liver microsomes (mouse); type: in vitro ADME
How it was run: as §1

[3] = human liver microsomes 0.5 mg/mL, 1 µM compound, 37°C
[4] = mouse liver microsomes 0.5 mg/mL, 1 µM compound, 37°C

| Clint [1, 3] | half-life at 1 µM [1, 3] | microsomal CLint at 1 µM ([1]; human liver microsomes, read-out: clearance rate (metabolic clearance rate)) | Clint [2, 4] | half-life at 1 µM [2, 4] | microsomal CLint at 1 µM ([2]; mouse liver microsomes, read-out: clearance rate (metabolic clearance rate)) | Compound | cell killing activity after addition of pomalidomide (+poma) compared to without (-poma) (Molt-4 cells) |
| --- | --- | --- | --- | --- | --- | --- | --- |
| 2.77 µL/min/mg protein | 8.34 h | 2.77 µL/min/mg | 4.30 µL/min/mg protein | 5.37 h | 4.3 µL/min/mg | O=C1CCC(N2C(=O)c3cccc(NCCN4CCC(CN5CCN(CC#Cc6ccc(OCCCc7ccc(N8CCc9cccc(C(=O)Nc%10nc%11ccccc%11s%10)c9C8)nc7C(=O)O)c(F)c6)CC5)CC4)c3C2=O)C(=O)N1 (centres unmarked) [APQ2] | significantly reduced cell killing activity |
|  |  |  |  |  |  | O=C1CCN(c2ccc(N3CCC(CN4CCN(CC#Cc5ccc(OCCCc6ccc(N7CCc8cccc(C(=O)Nc9nc%10ccccc%10s9)c8C7)nc6C(=O)O)c(F)c5)CC4)CC3)cc2)C(=O)N1 [APQ10] | significantly reduced cell killing activity |

From patent publication EP4759810A1, “PROTAC TARGETING BCL-XL PROTEIN AND USE THEREOF” (BEIJING SUNCELL BIO-MEDICAL CO., LTD., priority 2023, dated 2025)
